Legend:
[1] = minimum boiling azeotrope with 1,1,1-trichloroethane; cited from earlier work
[2] = Vapor-liquid equilibrium still, separation of 1,1,1-trichloroethane from ethanol; assay type: physicochemical; conditions: 1,1,1-trichloroethane from ethanol
[3] = Vapor-liquid equilibrium still, separation of 1,1,1-trichloroethane from n-propanol; assay type: physicochemical
[4] = Run in glass perforated rectification column, t-butanol; assay type: physicochemical
Protocol: A solution comprising 250 grams of the 1,1,1-trichloroethane-t-butanol azeotrope was placed in the stillpot of the 7.3 theoretical plate rectification column. […] The temperature of the extractive agent as it entered the top of the column was 80° C. After establishing the feed rate of the extractive agent, the heat input to the 1,1,1-trichloroethane-t-butanol in the stillpot was adjusted to give a total reflux rate of 40 ml/min. After 1.5 hours operation, overhead and bottoms samples were collected and analysed. The overhead analysis was 95.7% 1,1,1-trichloroethane, 4.3% t-butanol and the bottoms analysis was 33.5% 1,1,1-trichloroethane, 66.5% t-butanol. This gives an average relative volatility of 1.68 for each theoretical plate.

[5] = Run in glass perforated plate rectification column, ethanol; assay type: physicochemical; conditions: 1 h
Protocol: A solution comprising 250 grams of the 1,1,1-trichloroethane ethanol azeotrope was placed in the stillpot of the 7.3 theoretical plate rectification column. […] The temperature of the extractive agent as it entered the top of the column was 70° C. After establishing the feed rate of the extractive agent, the heat input to the 1,1,1-trichloroethane ethanol in the stillpot was adjusted to give a total reflux rate of 40 ml/min. After 1.5 hours operation, overhead and bottoms samples were collected and analysed.

[6] = Run in glass perforated plate rectification column, methanol; assay type: physicochemical; conditions: 1 h
Protocol: A solution comprising 250 grams of the 1,1,1-trichloroethane-methanol azeotrope was placed in the stillpot of a 7.3 theoretical plate glass perforated plate rectification column. […] The temperature of the extractive agent as it entered the top of the column was 65° C. After establishing the feed rate of the extractive agent, the heat input to the 1,1,1-trichloroethane-methanol in the stillpot was adjusted to give a total reflux rate of 40 ml/min. After 1.5 hours operation, overhead and bottoms samples were collected and analysed by gas chromatography. The overhead analysis was 90.2% 1,1,1-trichloroethane, 9.8% methanol and the bottoms analysis was 0.8% 1,1,1-trichloroethane, 99.2% methanol.

[7] = Vapor-liquid equilibrium still, separation of 1,1,1-trichloroethane from methanol; assay type: physicochemical
[8] = Vapor-liquid equilibrium still, separation of 1,1,1-trichloroethane from 2-butanol; assay type: physicochemical
[9] = Run in glass perforated plate rectification column, 2-butanol; assay type: physicochemical
Protocol: A solution comprising 250 grams of the 1,1,1-trichloroethane-2-butanol azeotrope was placed in the stillpot of the 7.3 theoretical plate rectification column. […] The temperature of the extractive agent as it entered the column was 83° C. After establishing the feed rate of the extractive agent, the heat input to the 1,1,1-trichloroethane-2-butanol in the stillpot as adjusted to give a total reflux rate of 40 ml/min. After 1.5 hours operation, overhead and bottoms samples were collcted and analysed. The overhead analysis was 99.7% 1,1,1-trichloroetahne, 0.3% 2-butanol and the bottoms analysis was 55.1% 1,1,1-trichloroethane, 44.9% 2-butanol. This gives an average relative volatility of 2.15 for each theoretical plate.

[10] = Run in glass perforated plate rectification column, isopropanol; assay type: physicochemical
Protocol: A solution comprising 250 grams of the 1,1,1-trichloroethane-isopropanol azeotrope was placed in the stillpot of the 7.3 theoretical plate rectification column. […] The temperature of the extractive agent as it entered the top of the column was 73° C. After establishing the feed rate of the extractive agent, the heat input to the 1,1,1-trichloroethane-isopropanol in the stillpot was adjusted to give a total reflux rate of 40 ml/min. After 1.5 hours operation, overhead and bottoms samples were collected and analysed.

[11] = Vapor-liquid equilibrium still, separation of 1,1,1-trichloroethane from t-butanol; assay type: physicochemical
[12] = Vapor-liquid equilibrium still, separation of 1,1,1-trichloroethane from isopropanol; assay type: physicochemical
[13] = Run in glass perforated plate rectification column, n-propanol; assay type: physicochemical
Protocol: A solution comprising 250 grams of the 1,1,1-trichloroethane-n-propanol azeotrope was placed in the stillpot of the 7.3 theoretical plate rectification column. […] The temperature of the extractive agent as it entered the top of the column was 75° C. After establishing the feed rate of the extractive agent, the heat input to the 1,1,1-trichloroethane […] in the stillpot was adjusted to give a total reflux rate of 40 ml/min. After 1.5 hours operation, overhead and bottoms samples were collected and analysed. […] This gives an average relative volatility of 2.33 for each theoretical plate.

[14] = 1,1,1-trichloroethane from n-propanol, vapor-liquid equilibrium still
[15] = […], average for each theoretical plate
[16] = 70 g azeotrope, 30 g agent, refluxed eight hours
[17] = 1,1,1-trichloroethane from t-butanol

SMILES: CCC(C)O (stereo not shown) [2-Butanol]
- 1,1,1-trichloroethane content of azeotrope [1]: 90%
- azeotrope boiling point [1]: 70.5 °C
- Relative Volatility [2]: 2.0

SMILES: C[S+](C)[O-] [Dimethylsulfoxide]
- Relative Volatility [3, 14]: 2.3
- Relative Volatility ([4]; 1 h): 1.68
- Relative Volatility [4, 15]: 1.68
- Weight % CH3 CCl3 ([4]; bottoms, 1 h): 43.4%
- Weight % t-Butanol ([4]; bottoms, 1 h): 56.6%
- Weight % CH3 CCl3 ([4]; overhead, 1 h): 97.1%
- Weight % t-Butanol ([4]; overhead, 1 h): 2.9%
- Relative Volatility [5]: 2.1
- Weight % CH3 CCl3 ([5]; bottoms): 13.6%
- Weight % Ethanol ([5]; bottoms): 86.4%
- Weight % CH3 CCl3 ([5]; overhead): 97.3%
- Weight % Ethanol ([5]; overhead): 2.7%
- Relative Volatility [6]: 2.13
- Weight % CH3 CCl3 ([6]; bottoms): 3.5%
- Weight % Methanol ([6]; bottoms): 96.5%
- Weight % CH3 CCl3 ([6]; overhead): 90.2%
- Weight % Methanol ([6]; overhead): 9.8%
- liquid composition, 1,1,1-trichloroethane [7, 16]: 11%
- liquid composition, methanol [7, 16]: 89%
- vapor composition, 1,1,1-trichloroethane [7, 16]: 24.2%
- vapor composition, methanol [7, 16]: 75.8%
- Relative Volatility [8]: 2.2
- Relative Volatility ([9]; 1 h): 2.1
- Relative Volatility [9, 15]: 2.15
- Weight % 2-Butanol ([9]; bottoms, 1 h): 46.9%
- Weight % CH3 Cl3 ([9]; bottoms, 1 h): 53.1%
- Weight % 2-Butanol ([9]; overhead, 1 h): 0.4%
- Weight % CH3 Cl3 ([9]; overhead, 1 h): 99.6%
- Relative Volatility ([10]; 1 h): 2.5
- Relative Volatility [10, 15]: 2.2
- Weight % CH3 CCl3 ([10]; bottoms, 1 h): 27.8%
- Weight % Isopropanol ([10]; bottoms, 1 h): 72.2%
- Weight % CH3 CCl3 ([10]; overhead, 1 h): 99.6%
- Weight % Isopropanol ([10]; overhead, 1 h): 0.4%
- Relative Volatility [11, 17]: 1.7
- Relative Volatility [12]: 2.5
- Relative Volatility ([13]; 1 h): 2.17
- Relative Volatility [13, 15]: 2.33
- Weight % CH3 CCl3 ([13]; bottoms, 1 h): 40%
- Weight % n-Propanol ([13]; bottoms, 1 h): 60%
- Weight % CH3 CCl3 ([13]; overhead, 1 h): 99.5%
- Weight % n-Propanol ([13]; overhead, 1 h): 0.5%

SMILES: COC(=O)c1ccccc1O [Methyl salicylate]
- Relative Volatility [3]: 1.3
- Relative Volatility [2]: 1.55
- Relative Volatility [8]: 1.3
- Relative Volatility ([11]; * Brings out t-Butanol as Overhead): 1.3
- Relative Volatility ([12]; * Brings Isopropanol out as Overhead, vapor-liquid equilibrium still): 1.45

SMILES: COCC(C)O (stereo not shown) [Propylene glycol methyl ether]
- Relative Volatility [3, 14]: 4.2
- Relative Volatility [2]: 2.0
- Relative Volatility ([7]; 1,1,1-trichloroethane from methanol, vapor-liquid equilibrium still): 3.1
- Relative Volatility ([8]; 1,1,1-trichloroethane from 2-butanol, vapor-liquid equilibrium still): 3.9
- Relative Volatility [11, 17]: 1.7
- Relative Volatility ([12]; 1,1,1-trichloroethane from isopropanol, vapor-liquid equilibrium still): 2.3

SMILES: CCO [ethanol]
- 1,1,1-trichloroethane content of azeotrope [1]: 75%
- azeotrope boiling point [1]: 63 °C

SMILES: CC(C)O [isopropanol]
- 1,1,1-trichloroethane content of azeotrope [1]: 80%

SMILES: CO [methanol]
- 1,1,1-trichloroethane content of azeotrope [1]: 20%
- azeotrope boiling point [1]: 61 °C

SMILES: CCCO [n-propanol]
- 1,1,1-trichloroethane content of azeotrope [1]: 85%

SMILES: CC(C)(C)O [t-butanol]
- 1,1,1-trichloroethane content of azeotrope [1]: 80%
- azeotrope boiling point [1]: 66 °C
